Measurements: patent US20150212068A1, “Cholyl-L-Lysyl-Fluorescein Assay” (Novassay SA, priority 2012, published 2015)

Assays:
[1] = Stability of CLF-spiked serum pools stored 48 hrs at −20° C., 4° C. and 37° C., CLF ELISA; format: in vitro ADME, human; conditions: for % difference (4° C. from −20° C.) / % difference (37° C. from −20° C.) / observed 4° C. / observed 37° C. / observed −20° C.: serum pool; for observed 4° C.: 48 hrs at 4° C.; for observed 37° C.: 48 hrs at 37° C.; for observed −20° C.: 48 hrs at −20° C.
Method: (§1) These conditions were used for all assays described in Phase 2a (above) and Phase 2b (below). See Appendix B and C for buffer and conjugate formulations respectively: • Add 25 μl/well of sample or standard (0-1000 ng/ml CLF in Buffer #24) to the wells of a streptavidin-coated microtitre plate (NovAssay, F2SAC). • Add 100 μl/well of fluorescein-biotin (Sigma B9431) at 20 ng/ml in Buffer #24+0.2% w/v ANS (Sigma 10417). • Add 100 μl/well of anti-fluorescein HRP (NovAssay, DV047/17-3) at 100 ng/ml in Buffer #24. • Incubate the plate for 30 minutes at room temperature. • Wash the plate 3 times with 800 μl/well Buffer #29 and tap the plate dry. • Add 100 μl/well of SureBlue Reserve TMB Substrate (KPL) and incubate the plate for 10 minutes at room temperature. • Stop the substrate reaction by adding 100 μl/well of 1M HCl and read the absorbance at 450 nm wavelength (ThermoFisher Scientific, Multiskan FC).
The stability study (−20° C., 4° C. and 37° C.) involved preparation of 3 serum pools spiked with 31.25 ng/ml, 125 ng/ml and 250 ng/ml CLF (aliquots of which were then stored at the 3 temperatures). Storage time was 48 hrs.

[2] = Stability (LTD samples) of CLF in plasma measured with the CLF ELISA; format: in vitro ADME, human
Method: as §1
The samples provided (LTD) included 8 “standards” (no details of their preparation were given, apart from the concentration which ranged from 0 to 100 ng/ml) and samples which were presumed to be stability samples (no details of their preparation were given). The stability work appeared to have been undertaken on 3 individual donor samples. Note, that 2 of the donor samples were heavily haemolysed.

[3] = Stability of buffer-based CLF standards after 4 weeks storage at 2-8° C., CLF ELISA; format: physicochemical; conditions: for mean OD, fresh: freshly made; for decrease in immunoreactivity: buffer-based CLF standards
Method: as §1
Standards were prepared by spiking CLF into buffer (6 standards having a concentration span of 0 to 1000 ng/ml). The standards were stored at 2-8° C. for 4 weeks. They were then taken out of the fridge and assayed alongside standards that were freshly made.

[4] = Fresh std 16 ng/ml, 4 weeks at 2-8° C.
[5] = Fresh std 31 ng/ml, 4 weeks at 2-8° C.
[6] = Fresh std 63 ng/ml, 4 weeks at 2-8° C.
[7] = Fresh std 125 ng/ml, 4 weeks at 2-8° C.
[8] = Fresh std 250 ng/ml, 4 weeks at 2-8° C.
[9] = Fresh std 500 ng/ml, 4 weeks at 2-8° C.
[10] = Fresh std 1000 ng/ml, 4 weeks at 2-8° C.

CC(CCC(=O)NC(CCCCNC(=S)Nc1ccc(-c2c3ccc(=O)cc-3oc3cc(O)ccc23)c(C(=O)O)c1)C(=O)O)C1CCC2C3C(O)CC4CC(O)CCC4(C)C3CC(O)C12C [CLF, Cholyl-L-Lysyl-Fluorescein]
time spiked samples can be stored ([1]; at 4 C., should avoid higher temperatures e.g. 37 C.): 48 hrs at 4 C. but should avoid higher
% difference (4° C. from −20° C.) ([1]; expected 31.25 ng/ml, 48 hrs): −8%
% difference (37° C. from −20° C.) ([1]; expected 31.25 ng/ml, 48 hrs): −45%
observed 4° C. ([1]; expected 31.25 ng/ml): 34 ng/mL
observed 37° C. ([1]; expected 31.25 ng/ml): 20 ng/mL
observed −20° C. ([1]; expected 31.25 ng/ml): 37 ng/mL
% difference (4° C. from −20° C.) ([1]; expected 125 ng/ml, 48 hrs): −2%
% difference (37° C. from −20° C.) ([1]; expected 125 ng/ml, 48 hrs): −20%
observed 4° C. ([1]; expected 125 ng/ml): 107 ng/mL
observed 37° C. ([1]; expected 125 ng/ml): 88 ng/mL
observed −20° C. ([1]; expected 125 ng/ml): 110 ng/mL
% difference (4° C. from −20° C.) ([1]; expected 250 ng/ml, 48 hrs): −12%
observed 4° C. ([1]; expected 250 ng/ml): 211 ng/mL
observed 37° C. ([1]; expected 250 ng/ml): >off scale
observed −20° C. ([1]; expected 250 ng/ml): 240 ng/mL
storage stability of spiked samples ([1]; serum pools spiked with CLF, 48 hrs, 4° C. vs 37° C. (reference −20° C.)): can be stored for 48 hrs at 4 °C but should avoid higher temperatures
comparison of storage temperatures ([2]; LTD plasma stability samples, 4° C. vs RT (~18-22° C.)): 4 °C storage is slightly better than RT
percent loss of CLF ([2]; LTD plasma stability samples, 24 hours): approximately 10%
percent loss of CLF ([2]; PLASMA 2.4, T0): 0%
percent loss of CLF ([2]; PLASMA 2.4, T30): −11%
percent loss of CLF ([2]; PLASMA 2.4, T120): −12%
percent loss of CLF ([2]; PLASMA 2.4, T24 h): −11%
percent loss of CLF ([2]; PLASMA 2.5.1, T0): 0%
percent loss of CLF ([2]; PLASMA 2.5.1, T30, 4° C.): 3%
percent loss of CLF ([2]; PLASMA 2.5.1, T30 RT): −5%
percent loss of CLF ([2]; PLASMA 2.5.1, T120 4° C.): 1%
percent loss of CLF ([2]; PLASMA 2.5.1, T120 RT): −6%
percent loss of CLF ([2]; PLASMA 2.5.1, T24 h 4° C.): −9%
percent loss of CLF ([2]; PLASMA 2.5.1, T24 h RT): −13%
percent loss of CLF ([2]; PLASMA 2.5.2, T0): 0%
percent loss of CLF ([2]; PLASMA 2.5.2, T30, 4° C.): 10%
percent loss of CLF ([2]; PLASMA 2.5.2, T30 RT): 3%
percent loss of CLF ([2]; PLASMA 2.5.2, T120 4° C.): 10%
percent loss of CLF ([2]; PLASMA 2.5.2, T120 RT): 1%
percent loss of CLF ([2]; PLASMA 2.5.2, T24 h 4° C.): −5%
percent loss of CLF ([2]; PLASMA 2.5.2, T24 h RT): −14%
4-week stds [3, 4]: 5 ng/mL
% change in CLF immunoreactivity [3, 4]: −67%
4-week stds [3, 5]: 17 ng/mL
% change in CLF immunoreactivity [3, 5]: −44%
4-week stds [3, 6]: 38 ng/mL
% change in CLF immunoreactivity [3, 6]: −40%
4-week stds [3, 7]: 72 ng/mL
% change in CLF immunoreactivity [3, 7]: −42%
4-week stds [3, 8]: 162 ng/mL
% change in CLF immunoreactivity [3, 8]: −35%
4-week stds [3, 9]: 359 ng/mL
% change in CLF immunoreactivity [3, 9]: −28%
4-week stds [3, 10]: 685 ng/mL
% change in CLF immunoreactivity [3, 10]: −31%
mean OD, 4-week old stds ([3]; buffer standard 16 ng/ml, 4 weeks at 2-8° C.): 3.219
mean OD, fresh ([3]; buffer standard 16 ng/ml): 2.745
mean OD, 4-week old stds ([3]; buffer standard 31 ng/ml, 4 weeks at 2-8° C.): 2.699
mean OD, fresh ([3]; buffer standard 31 ng/ml): 2.265
mean OD, 4-week old stds ([3]; buffer standard 63 ng/ml, 4 weeks at 2-8° C.): 2.133
mean OD, fresh ([3]; buffer standard 63 ng/ml): 1.653
mean OD, 4-week old stds ([3]; buffer standard 125 ng/ml, 4 weeks at 2-8° C.): 1.577
mean OD, fresh ([3]; buffer standard 125 ng/ml): 0.884
mean OD, 4-week old stds ([3]; buffer standard 250 ng/ml, 4 weeks at 2-8° C.): 0.953
mean OD, fresh ([3]; buffer standard 250 ng/ml): 0.661
mean OD, 4-week old stds ([3]; buffer standard 500 ng/ml, 4 weeks at 2-8° C.): 0.528
mean OD, fresh ([3]; buffer standard 500 ng/ml): 0.419
mean OD, 4-week old stds ([3]; buffer standard 1000 ng/ml, 4 weeks at 2-8° C.): 0.317
mean OD, fresh ([3]; buffer standard 1000 ng/ml): 0.235
decrease in immunoreactivity ([3]; 4 weeks at 2-8 C.): resulted in a 30-40% decrease in
decrease in immunoreactivity ([3]; 4 weeks at 2-8° C., vs fresh standards): 30-40%
